Measured values published in the NIST ThermoML archive (doi:10.1021/je201301b).
± gives the expanded uncertainty stated by the source.

Conditions: 101.33 kPa, Liquid, Vibrating tube method

Row | Compound | mass density (298.15 K) | mass density (308.15 K) | mass density (318.15 K) | mass density (328.15 K) | mass density (338.15 K) | mass density (348.15 K)
1 | CCCCCCOCn1cc[n+](C)c1.F[B-](F)(F)F [1-hexyloxymethyl-3-methylimidazolium tetrafluoroborate] | 1153.1 ± 3.3 kg/m3 | 1145.76 ± 3.2 kg/m3 | 1138.71 ± 3.2 kg/m3 | 1131.65 ± 3.2 kg/m3 | 1124.63 ± 3.1 kg/m3 | 1117.63 ± 3.1 kg/m3
2 | CCCCCCOCn1cc[n+](COCCCCCC)c1.O=S(=O)([N-]S(=O)(=O)C(F)(F)F)C(F)(F)F | 1254.89 ± 3.9 kg/m3 | 1246.07 ± 3.9 kg/m3 | 1237.28 ± 3.8 kg/m3 | 1228.51 ± 3.8 kg/m3 | 1219.66 ± 3.7 kg/m3 | 1210.87 ± 3.7 kg/m3
